Data reported in patent publication US6645973B1, “Spiro(2h-1-benzopyran-2,4-piperidine)derivatives as glycine transport inhibitors” (Akzo Nobel, priority 1999, dated 2003).
Structures can show the parent of a compound that is named as a salt.

Columns and labels:
[1] = molecular target: T1, human GlyT-1b transporter (Homo sapiens, UniProt P48067); experiment: Glycine uptake in CHO cells heterologously expressing the human GlyT-1b transporter ([3H]glycine uptake); type: cell-based; conditions: CHO cells stably expressing hGlyT-1b, 10 minutes, 37° C.; for IC50: read-out: Inhibition of glycine transport by hGlyT-1, pIC50 (converted)
T1 construct: expressed in transfected cells; host or cells: CHO cells, stably transfected (pcDNA3, Geneticin selection)
T1 sequence (P48067 1-652 isoform P48067-3): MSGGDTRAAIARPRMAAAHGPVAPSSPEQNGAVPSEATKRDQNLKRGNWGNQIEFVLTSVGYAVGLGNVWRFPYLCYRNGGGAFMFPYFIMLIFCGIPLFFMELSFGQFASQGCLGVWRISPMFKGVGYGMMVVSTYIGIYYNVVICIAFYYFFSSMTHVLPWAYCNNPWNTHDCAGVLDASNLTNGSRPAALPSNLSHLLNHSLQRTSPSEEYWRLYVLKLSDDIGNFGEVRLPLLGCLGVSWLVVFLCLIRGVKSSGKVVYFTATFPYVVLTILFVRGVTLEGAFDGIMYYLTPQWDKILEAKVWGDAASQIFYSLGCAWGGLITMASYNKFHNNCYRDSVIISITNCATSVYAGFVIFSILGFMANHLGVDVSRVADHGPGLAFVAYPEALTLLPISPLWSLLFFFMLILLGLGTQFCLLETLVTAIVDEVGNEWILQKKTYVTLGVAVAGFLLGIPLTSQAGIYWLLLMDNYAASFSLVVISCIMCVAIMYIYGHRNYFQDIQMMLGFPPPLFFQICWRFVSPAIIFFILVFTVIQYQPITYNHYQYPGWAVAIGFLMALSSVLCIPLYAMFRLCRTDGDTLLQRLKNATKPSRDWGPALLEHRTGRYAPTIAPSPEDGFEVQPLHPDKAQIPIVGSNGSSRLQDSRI
Experimental: Method for Determination of Glycine Uptake in CHO Cells Heterologously Expressing the Human GlyT-1b Transporter
A: Cloning: cDNA was generated by PCR according to the method described by Kim, K.-M. et al. Mol. Pharmacol. 1994, 45, 608-617. Sequence was verified by dideoxy sequencing using the ALF DNA sequencer™ (Pharmacia) and cloned into the expression construct pcDNA3 (Invitrogen).
B: Transfection: Transfection of hGlyT-1b into CHO cells was performed using a standard calcium phosphate technique as described by Sambrook, J. et al. (1989) in Molecular Cloning: A Laboratory Manual, Cold Spring Harbor Laboratory, Cold Spring Harbor, N.Y.
C: Selection: Stably transfected cells were selected for 1 week in growth medium containing 1 mg.cm^−3 Geneticin. Individual clones were picked for further analysis and positives passaged routinely as described below.
D: Culture conditions: Cells stably expressing; the hGlyT-1b gene were cultured at 37° C. in a 5% C02 atmosphere in DMEM—NUT.MIX. F12 with Glutamax-1 (Gibco) containing Geneticin (0.5 mg.cm^−3, Gibco) and supplemented with 10% Fetalclone II (Hyclone). Maintenance culture was carried out in standard 80 cm^2 ventilated flasks (2×10^−6 m filter, Nunc) and cells were subcultured by trypsinisation (Sigma) when confluent.
E: Assay Procedure: Cells for uptake studies were plated in 96 well plates (17,000 cells per well) in the absence of Geneticin and cultured for 48 h before use. To measure glycine transport, cells were washed twice with Hanks' balanced salt solution (HBSS) pre-warmed to 37° C. and excess fluid removed before addition of test compounds dissolved in 0.200 cm^3 HBSS. Plates were incubated at 37° C. for 5 minutes before addition of [^3H]glycine (0.050′cm^3, 150×10^−6 M, 248 Bq.nmol^−1, NEN) and incubation continued for a further 10 minutes. Uptake was terminated by washing cells with ice-cold HBSS before removal of excess fluid and addition of 0.200 cm^3 scintillation cocktail to each well. Plates were sealed with adhesive film, shaken to ensure samples were homogenous before scintillation counting in a plate counter.
F: Analysis: Data were analysed using standard curve fitting procedures to produce a plC50 value for active compounds (where plC50 is the negative logarithm of the concentration of test compound causing 50% inhibition of uptake).

SMILES	IC50 [1] [nM]	further results
C=CCOc1c(F)cc(C2=CC3(CCN(CC(=O)O)CC3)Oc3ccccc32)cc1F (as salt: hydrochloride) [Example 55, 4-(4-Allyloxy-3,5-difluorophenyl)-1′-carboxymethylspiro[2H-1-benzopyran-2,4′-piperidine]hydrochloride]		melting point: 221 to 225 °C
O=C([O-])CN1CCC2(C=C(c3ccccc3)c3ccccc3O2)CC1.[Li+]		melting point: 280 to 281 °C
CCCCOc1ccc(C2=CC3(CCN(CC(=O)O)CC3)Oc3ccccc32)cc1F [Example 49, 1′-Carboxymethyl-4-(3-fluoro-4-n-butoxyphenyl)spiro[2H-1-benzopyran-2,4′-piperidine]hydrochloride]	794	
CN(C)c1ccc(C2=CC3(CCN(CC(=O)O)CC3)Oc3ccccc32)cc1F (as salt: hydrochloride) [Example 37, 1′-Carboxymethyl-4-(4-dimethylamino-3-fluorophenyl)spiro[2H-1-benzopyran-2,4′-piperidine]hydrochloride]		melting point: 231 to 239 °C
O=C(O)CN1CCC2(C=C(c3ccc(Cl)cc3)c3ccccc3O2)CC1 (as salt: hydrochloride) [Example 2, 1′-Carboxymethyl-4-(4-chlorophenyl)spiro[2H-1-benzopyran-2,4′-piperidine]hydrochloride]		melting point: 259 to 265 °C
Cc1ccc(C2=CC3(CCN(CC(=O)O)CC3)Oc3ccccc32)cc1.Cl [Example 4, 1′-Carboxymethyl-4-(4-methylphenyl)spiro[2H-1-benzopyran-2,4′-piperidine]hydrochloride]		Inhibition of glycine transport by hGlyT-1, pIC50 [1]: 6.3
Cc1ccc(C2=CC3(CCN(CC(=O)O)CC3)Oc3cc(Cl)ccc32)cc1F [Example 35, 1′-Carboxymethyl-7-chloro-4-(3-fluoro-4-methylphenyl)spiro[2H-1-benzopyran-2,4′-piperidine]hydrochloride]	501	
O=C(O)CN1CCC2(C=C(c3ccc4ccccc4c3)c3ccccc3O2)CC1 (as salt: hydrochloride) [Example 10, 1′-Carboxymethyl-4-(2-naphthyl)spiro[2H-1-benzopyran-2,4′-piperidine]hydrochloride]		melting point: 253 to 264 °C
COc1ccc(C2=CC3(CCN(CC(=O)O)CC3)Oc3ccccc32)cc1F (as salt: hydrochloride) [Example 11, 1′-Carboxymethyl-4-(3-fluoro-4-methoxyphenyl)spiro[2H-1-benzopyran-2,4′-piperidine]hydrochloride]		melting point: 252 to 261 °C
C#CCOc1c(F)cc(C2=CC3(CCN(CC(=O)O)CC3)Oc3ccccc32)cc1F (as salt: hydrochloride) [Example 57, 1′-Carboxymethyl-4-(3,5-difluoro-4-propargyloxyphenyl)spiro[2H-1-benzopyran-2,4′-piperidine]hydrochloride]		melting point: 211 to 217 °C
O=C(O)CN1CCC2(C=C(c3cc(F)c(OCC(F)(F)F)c(F)c3)c3ccccc3O2)CC1 [Example 59, 1′-Carboxymethyl-4-(3,5-difluoro-4-trifluoroethoxyphenyl)spiro[2H-1-benzopyran-2,4′-piperidine]hydrochloride]	251	
Cl.O=C(O)CN1CCC2(C=C(c3ccc4c(c3)OCO4)c3ccccc3O2)CC1 [Example 14, 4-(1,3-Benzodioxolo)-1′-carboxymethylspiro[2H-1-benzopyran-2,4′-piperidine]hydrochloride]		Inhibition of glycine transport by hGlyT-1, pIC50 [1]: 6.1
C=CCOc1c(F)cc(C2=CC3(CCN(CC(=O)O)CC3)Oc3ccccc32)cc1F [Example 55, 4-(4-Allyloxy-3,5-difluorophenyl)-1′-carboxymethylspiro[2H-1-benzopyran-2,4′-piperidine]hydrochloride]	251	
C#CCOc1c(F)cc(C2=CC3(CCN(CC(=O)O)CC3)Oc3ccccc32)cc1F [Example 57, 1′-Carboxymethyl-4-(3,5-difluoro-4-propargyloxyphenyl)spiro[2H-1-benzopyran-2,4′-piperidine]hydrochloride]	251	
Cl.O=C(O)CN1CCC2(C=C(c3ccc4c(c3)OC(F)(F)O4)c3ccccc3O2)CC1 [Example 33, 1′-Carboxymethyl-4-(2,2-difluoro-1,3-benzodioxolo)spiro[2H-1-benzopyran-2,4′-piperidine]hydrochloride]		Inhibition of glycine transport by hGlyT-1, pIC50 [1]: 6.2
COc1c(F)cc(C2=CC3(CCN(CC(=O)O)CC3)Oc3ccccc32)cc1F [Example 36, 1′-Carboxymethyl-4-(3,5-difluoro-4-methoxyphenyl)spiro[2H-1-benzopyran-2,4′-piperidine]hydrochloride]	398	
O=C(O)CN1CCC2(C=C(c3ccc(Br)c(F)c3)c3ccccc3O2)CC1 [Example 39, 4-(4-Bromo-3-fluorophenyl)-1′-carboxymethylspiro[2H-1-benzopyran-2,4′-piperidine]hydrochloride]	794	

Second part, led by results:

IC50 [1] [nM]	SMILES	further results
316	Cc1ccc(C2=CC3(CCN(CC(=O)O)CC3)Oc3ccccc32)cc1F [Example 28, 1′-Carboxymethyl-4-(3-fluoro-4-methylphenyl)spiro[2H-1-benzopyran-2,4′-piperidine]hydrochloride]	
398	CN(C)c1ccc(C2=CC3(CCN(CC(=O)O)CC3)Oc3ccccc32)cc1F [Example 37, 1′-Carboxymethyl-4-(4-dimethylamino-3-fluorophenyl)spiro[2H-1-benzopyran-2,4′-piperidine]hydrochloride]	
501	O=C(O)CN1CCC2(C=C(c3ccc(Cl)c(F)c3)c3ccccc3O2)CC1 [Example 8, 1′-Carboxymethyl-4-(4-chloro-3-fluorophenyl)spiro[2H-1-benzopyran-2,4′-piperidine]hydrochloride]	
501	CCCOc1ccc(C2=CC3(CCN(CC(=O)O)CC3)Oc3ccccc32)cc1F [Example 48, 1′-Carboxymethyl-4-(3-fluoro-4-n-propoxyphenyl)spiro[2H-1-benzopyran-2,4′-piperidine]hydrochloride]	
631	COc1ccc(C2=CC3(CCN(CC(=O)O)CC3)Oc3ccccc32)cc1F [Example 11, 1′-Carboxymethyl-4-(3-fluoro-4-methoxyphenyl)spiro[2H-1-benzopyran-2,4′-piperidine]hydrochloride]	
251	CN(C)c1c(F)cc(C2=CC3(CCN(CC(=O)O)CC3)Oc3ccccc32)cc1F [Example 38, 1′-Carboxymethyl-4-(3,5-difluoro-4-dimethylaminophenyl)spiro[2H-1-benzopyran-2,4′-piperidine]hydrochloride]	
1000	O=C(O)CN1CCC2(C=C(c3ccc(Cl)cc3)c3ccccc3O2)CC1 [Example 2, 1′-Carboxymethyl-4-(4-chlorophenyl)spiro[2H-1-benzopyran-2,4′-piperidine]hydrochloride]	
398	CC(C)(C)c1ccc(C2=CC3(CCN(CC(=O)O)CC3)Oc3ccccc32)cc1 [Example 12, 1′-Carboxymethyl-4-(4-tert-butylphenyl)spiro[2H-1-benzopyran-2,4′-piperidine]hydrochloride]	
631	O=C(O)CN1CCC2(C=C(c3ccc4ccccc4c3)c3ccccc3O2)CC1 [Example 10, 1′-Carboxymethyl-4-(2-naphthyl)spiro[2H-1-benzopyran-2,4′-piperidine]hydrochloride]	
631	CN(C)c1ccc(C2=CC3(CCN(CC(=O)O)CC3)Oc3ccccc32)cc1 [Example 24, 1′-Carboxymethyl-4-[4-(N,N-dimethylamino)phenyl]spiro[2H-1-benzopyran-2,4′-piperidine]hydrochloride]	
